Tests used:
[1] = molecular target: T1, Serine/threonine-protein kinase Chk1 (Homo sapiens, UniProt O14757); assay: Inhibition of CHK1 (unknown origin) incubated for 1 hr in presence of ATP by HTRF assay
T1 sequence (O14757 whole entry): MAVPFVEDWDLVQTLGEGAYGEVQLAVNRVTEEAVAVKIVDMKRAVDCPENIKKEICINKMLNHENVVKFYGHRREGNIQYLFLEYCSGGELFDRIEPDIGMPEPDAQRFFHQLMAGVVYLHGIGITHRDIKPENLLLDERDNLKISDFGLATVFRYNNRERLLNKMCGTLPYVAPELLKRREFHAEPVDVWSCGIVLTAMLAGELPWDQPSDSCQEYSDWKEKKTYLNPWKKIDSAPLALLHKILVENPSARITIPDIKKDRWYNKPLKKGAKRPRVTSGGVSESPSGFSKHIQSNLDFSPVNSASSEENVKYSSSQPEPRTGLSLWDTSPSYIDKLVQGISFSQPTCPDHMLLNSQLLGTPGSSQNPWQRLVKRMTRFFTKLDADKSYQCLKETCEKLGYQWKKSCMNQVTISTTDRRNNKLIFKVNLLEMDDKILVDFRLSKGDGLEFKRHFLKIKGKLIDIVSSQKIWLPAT

Z-138 = assay: Antiproliferation activity against human Z138 cells assessed as reduction in cell viability incubated for 72 hrs by MTS assay; assay type: functional, cell-based; details: Z-138, 72 h
MV4-11 [2] = assay: Antiproliferation activity against human MV4-11 cells assessed as reduction in cell viability incubated for 72 hrs by MTS assay; assay type: functional, cell-based; details: MV4-11, 72 h
hERG (KCNH2) = hERG (KCNH2) (Homo sapiens, UniProt Q12809); assay: Inhibition of human ERG expressed in HEK293 cells at 10 uM by patch-clamp technique relative to control; assay type: cell-based; details: HEK293 cells that express hERG
MV4-11 [3] = assay: Antitumor activity against human MV4-11 cells xenografted in mouse assessed as inhibition of tumor growth by measuring T/C ratio at 30 mg/kg, po dosed 5 days/week for 3 weeks measured twice every week; assay type: functional
[4] = MRT (0 to infinity) in ICR mouse at 20 mg/kg, po measured after 0.083 to 48 hrs by LC-MS/MS analysis; assay type: ADME, organism-based; details: in vivo, time 0.083-48 hrs
[5] = Tmax in ICR mouse at 20 mg/kg, po measured after 0.083 to 48 hrs by LC-MS/MS analysis; assay type: ADME, organism-based; details: in vivo, time 0.083-48 hrs
[6] = Cmax in ICR mouse at 20 mg/kg, po measured after 0.083 to 48 hrs by LC-MS/MS analysis; assay type: ADME, organism-based; design: route oral, time upper 48 hrs, time lower 0.083 hrs, dose 20 mg/kg; details: in vivo
[7] = AUC (0 to infinity) in ICR mouse at 20 mg/kg, po measured after 0.083 to 48 hrs by LC-MS/MS analysis; assay type: ADME, organism-based; design: route oral, time upper 48 hrs, time lower 0.083 hrs, dose 20 mg/kg; details: in vivo
[8] = Half life in ICR mouse at 20 mg/kg, po measured after 0.083 to 48 hrs by LC-MS/MS analysis; assay type: ADME, organism-based; details: in vivo, time 0.083-48 hrs
[9] = AUCt in ICR mouse at 20 mg/kg, po measured after 0.083 to 48 hrs by LC-MS/MS analysis; assay type: ADME, organism-based; design: route oral, dose 20 mg/kg, time 0.083-48 hrs; details: in vivo

Sequence of hERG (KCNH2) (Q12809 whole entry): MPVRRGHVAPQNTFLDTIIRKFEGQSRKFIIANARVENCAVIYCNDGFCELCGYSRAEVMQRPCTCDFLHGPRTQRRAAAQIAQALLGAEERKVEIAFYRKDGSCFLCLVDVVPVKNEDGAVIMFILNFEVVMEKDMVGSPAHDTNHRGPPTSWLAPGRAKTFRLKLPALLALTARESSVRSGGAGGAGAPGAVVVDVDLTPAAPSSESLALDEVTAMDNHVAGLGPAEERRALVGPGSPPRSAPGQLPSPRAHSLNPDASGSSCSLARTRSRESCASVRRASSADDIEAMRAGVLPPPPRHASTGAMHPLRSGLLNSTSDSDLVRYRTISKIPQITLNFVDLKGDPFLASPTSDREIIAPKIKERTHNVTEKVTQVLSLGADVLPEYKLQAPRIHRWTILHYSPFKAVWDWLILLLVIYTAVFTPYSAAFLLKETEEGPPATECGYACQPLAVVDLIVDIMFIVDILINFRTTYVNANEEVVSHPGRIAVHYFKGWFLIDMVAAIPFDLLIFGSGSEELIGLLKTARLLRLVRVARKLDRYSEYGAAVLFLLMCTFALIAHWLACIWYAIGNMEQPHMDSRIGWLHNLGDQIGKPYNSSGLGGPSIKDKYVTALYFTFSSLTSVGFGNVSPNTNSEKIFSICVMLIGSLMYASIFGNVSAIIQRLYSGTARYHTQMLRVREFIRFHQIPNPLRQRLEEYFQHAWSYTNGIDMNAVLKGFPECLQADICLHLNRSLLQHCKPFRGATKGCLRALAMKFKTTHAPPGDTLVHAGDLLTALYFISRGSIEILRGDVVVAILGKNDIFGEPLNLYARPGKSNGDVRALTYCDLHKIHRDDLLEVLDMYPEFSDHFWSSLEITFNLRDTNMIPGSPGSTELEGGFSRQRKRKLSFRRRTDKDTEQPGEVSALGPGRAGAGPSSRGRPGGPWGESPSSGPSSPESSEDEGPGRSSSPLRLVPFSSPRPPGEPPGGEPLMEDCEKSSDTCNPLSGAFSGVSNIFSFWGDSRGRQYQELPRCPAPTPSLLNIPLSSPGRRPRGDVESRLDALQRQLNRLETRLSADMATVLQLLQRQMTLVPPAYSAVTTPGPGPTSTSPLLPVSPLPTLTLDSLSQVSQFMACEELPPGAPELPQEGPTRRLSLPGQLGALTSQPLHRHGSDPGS

Compound | IC50 [1] [nM] | IC50 (Z-138) [nM] | IC50 (MV4-11 [2]) [nM] | other results
N#Cc1ccc(Nc2ncc(C(F)(F)F)c(NC[C@H]3CCCNC3)n2)cn1 | 111 | – | – | –
N#Cc1ccc(Nc2ncc(C(F)(F)F)c(NCCCCN)n2)cn1 | 88.4 | – | – | –
N#Cc1ccc(Nc2ncc(C(F)(F)F)c(NCCCNC=O)n2)cn1 | 441 | – | – | –
N#Cc1ccc(Nc2ncc(C(F)(F)F)c(NCCN)n2)cn1 | 217 | – | – | –
N#Cc1ccc(Nc2ncc(C(F)(F)F)c(NCCCNC3CCCC3)n2)cn1 | 5500 | – | – | –
N#Cc1ccc(Nc2ncc(C(F)(F)F)c(NCCCNC3CC3)n2)cn1 | 270 | – | – | –
CNc1nc(Nc2cnc(C#N)c(NCCN(C)C)c2)ncc1C(F)(F)F | 34 | 290 | 260 | –
CNc1nc(Nc2cnc(C#N)c(N[C@H]3CC[C@H](N)CC3)c2)ncc1C(F)(F)F | 33.1 | 960 | 70 | inhibition at 10 µM (hERG (KCNH2)): 5.3%
N#Cc1ccc(Nc2ncc(C(F)(F)F)c(NCCCNCCN3CCOCC3)n2)cn1 | 1610 | – | – | –
COCCNCCCNc1nc(Nc2ccc(C#N)nc2)ncc1C(F)(F)F | 577 | – | – | –
N#Cc1ccc(Nc2ncc(C(F)(F)F)c(NC3CC4CCC(C3)N4)n2)cn1 (stereo unspecified) | 624 | – | – | –
CNc1nc(Nc2cnc(C#N)c(NCCN)c2)ncc1C(F)(F)F | 19.1 | 400 | 210 | inhibition at 10 µM (hERG (KCNH2)): 9%
CNc1nc(Nc2cnc(C#N)c(OC[C@@H]3CCCNC3)c2)ncc1C(F)(F)F | 244 | – | – | –
N#Cc1ccc(Nc2ncc(C(F)(F)F)c(NC3CN4CCC3CC4)n2)cn1 (stereo unspecified) | 307 | – | – | –
CC(N)CCNc1nc(Nc2ccc(C#N)nc2)ncc1C(F)(F)F (racemic) | 26.9 | 5700 | 390 | inhibition at 10 µM (hERG (KCNH2)): 31.6%
CNc1nc(Nc2cnc(C#N)c(N[C@@H]3CCNC3)c2)ncc1C(F)(F)F | 3.3 | 170 | 60 | T/C (MV4-11 [3]): 65.78%; MRT inf [4]: 1.17 h; Tmax [5]: 0.33 h; Cmax [6]: 1330 ng/mL; AUC(0-inf) [7]: 1150 ng·h/mL; half-life [8]: 1.4 h; inhibition at 10 µM (hERG (KCNH2)): 17.9%; AUC(0-t) [9]: 1120 ng·h/mL
N#Cc1ccc(Nc2ncc(C(F)(F)F)c(NCCCNC3CCCCC3)n2)cn1 | 2260 | – | – | –
CNc1nc(Nc2cnc(C#N)c(O[C@@H]3CCCNC3)c2)ncc1C(F)(F)F | 7.6 | 1390 | 330 | MRT inf [4]: 1.57 h; Tmax [5]: 1.08 h; Cmax [6]: 127 ng/mL; AUC(0-inf) [7]: 168 ng·h/mL; half-life [8]: 0.7 h; inhibition at 10 µM (hERG (KCNH2)): 91.6%; AUC(0-t) [9]: 166 ng·h/mL
N#Cc1ccc(Nc2ncc(C(F)(F)F)c(NC[C@@H]3CCCNC3)n2)cn1 | 23.8 | 1190 | 300 | inhibition at 10 µM (hERG (KCNH2)): 41.1%
CNc1nc(Nc2cnc(C#N)c(O[C@@H]3CCCNC3)c2)ncc1-c1cnn(C(F)(F)F)c1 | 6.8 | – | – | MRT inf [4]: 2.58 h; Tmax [5]: 2 h; Cmax [6]: 93 ng/mL; AUC(0-inf) [7]: 130 ng·h/mL; half-life [8]: 0.89 h; AUC(0-t) [9]: 126 ng·h/mL
N#Cc1ccc(Nc2ncc(C(F)(F)F)c(NCCCNCCC(N)=O)n2)cn1 | 107 | – | – | –

Compound | IC50 [1] [nM] | IC50 (Z-138) [nM] | IC50 (MV4-11 [2]) [nM] | other results
CNc1nc(Nc2cnc(C#N)c(N[C@H]3CCNC3)c2)ncc1C(F)(F)F | 59.5 | – | – | –
CN1CCC(CNc2nc(Nc3ccc(C#N)nc3)ncc2C(F)(F)F)CC1 | 185 | – | – | –
CNc1nc(Nc2cnc(C#N)c(N[C@@H]3CCN(C)C3)c2)ncc1C(F)(F)F | 119 | – | – | –
N#Cc1ccc(Nc2ncc(C(F)(F)F)c(NCCCNC3CCC3)n2)cn1 | 1490 | – | – | –
CNc1nc(Nc2cnc(C#N)c(OCCCN)c2)ncc1C(F)(F)F | 78 | – | – | –
N#Cc1ccc(Nc2ncc(C(F)(F)F)c(NCCCNCCO)n2)cn1 | 217 | – | – | inhibition at 10 µM (hERG (KCNH2)): 35.2%
CS(=O)(=O)CCNCCCNc1nc(Nc2ccc(C#N)nc2)ncc1C(F)(F)F | 24.3 | 630 | 250 | MRT inf [4]: 2.42 h; Tmax [5]: 0.25 h; Cmax [6]: 1690 ng/mL; AUC(0-inf) [7]: 2710 ng·h/mL; half-life [8]: 2.38 h; inhibition at 10 µM (hERG (KCNH2)): 58.5%; AUC(0-t) [9]: 2520 ng·h/mL
N#Cc1ccc(Nc2ncc(C(F)(F)F)c(NCCCNCC(O)CO)n2)cn1 (stereo unspecified) | 152 | – | – | –
CNc1nc(Nc2cnc(C#N)c(NC[C@@H]3CCNC3)c2)ncc1C(F)(F)F | 20.2 | 270 | 140 | inhibition at 10 µM (hERG (KCNH2)): 2.4%
CNc1nc(Nc2cnc(C#N)c(O[C@H]3CCNC3)c2)ncc1C(F)(F)F | 45 | – | – | –
CC(C)(CN)CNc1nc(Nc2ccc(C#N)nc2)ncc1C(F)(F)F | 220 | – | – | –
CNc1nc(Nc2cnc(C#N)c(N[C@@H]3CCCNC3)c2)ncc1C(F)(F)F | 12.2 | 720 | 50 | inhibition at 10 µM (hERG (KCNH2)): 81.1%
N#Cc1ccc(Nc2ncc(C(F)(F)F)c(NC3CCNCC3)n2)cn1 | 120 | – | – | –
CNc1nc(Nc2cnc(C#N)c(NC3CN4CCC3CC4)c2)ncc1C(F)(F)F (stereo unspecified) | 608 | – | – | –
CNc1nc(Nc2cnc(C#N)c(OC3CCNCC3)c2)ncc1C(F)(F)F | 32.7 | 440 | 240 | –
N#Cc1ccc(Nc2ncc(C(F)(F)F)c(NCCCN)n2)cn1 | 20.9 | 460 | 140 | T/C (MV4-11 [3]): 29.94%; MRT inf [4]: 1.3 h; Tmax [5]: 0.5 h; Cmax [6]: 2860 ng/mL; AUC(0-inf) [7]: 4100 ng·h/mL; half-life [8]: 0.76 h; inhibition at 10 µM (hERG (KCNH2)): 43.4%; AUC(0-t) [9]: 3300 ng·h/mL
N#Cc1ccc(Nc2ncc(C(F)(F)F)c(NC[C@@H]3CCNC3)n2)cn1 | 40.3 | 1170 | 200 | –
CNC(C)CCNc1nc(Nc2ccc(C#N)nc2)ncc1C(F)(F)F (stereo unspecified) | 16.3 | 350 | 150 | inhibition at 10 µM (hERG (KCNH2)): 35.5%
N#Cc1ccc(Nc2ncc(C(F)(F)F)c(N[C@H]3CCNC3)n2)cn1 | 214 | – | – | –
CN(C)CCCNc1nc(Nc2ccc(C#N)nc2)ncc1C(F)(F)F | 458 | – | – | –
CNc1nc(Nc2cnc(C#N)c(O[C@@H]3CCNC3)c2)ncc1C(F)(F)F | 21.3 | 1410 | 430 | –

Compound | IC50 [1] [nM] | IC50 (Z-138) [nM] | IC50 (MV4-11 [2]) [nM] | other results
CNc1nc(Nc2cnc(C#N)c(OCC3CCNCC3)c2)ncc1C(F)(F)F | 213 | – | – | –
CNc1nc(Nc2cnc(C#N)c(NCC3CCCCN3)c2)ncc1C(F)(F)F (stereo unspecified) | 46.9 | 210 | 160 | –
N#Cc1ccc(Nc2ncc(C(F)(F)F)c(NCC3CCCCN3)n2)cn1 (racemic) | 993 | – | – | –
CNc1nc(Nc2cnc(C#N)c(OC3CCN(C)CC3)c2)ncc1C(F)(F)F | 53.7 | – | – | –
N#Cc1ccc(Nc2ncc(C(F)(F)F)c(N[C@H]3CCCNC3)n2)cn1 | 28.3 | 160 | 270 | inhibition at 10 µM (hERG (KCNH2)): 74.6%
N#Cc1ccc(Nc2ncc(C(F)(F)F)c(NCC3CCNCC3)n2)cn1 | 65.5 | – | – | –
CNc1nc(Nc2cnc(C#N)c(NC3CCNCC3)c2)ncc1C(F)(F)F | 101 | – | – | –
N#Cc1ncc(Nc2ncc(C(F)(F)F)cn2)cc1O[C@@H]1CCCNC1 | 1010 | – | – | –
N#Cc1ccc(Nc2ncc(C(F)(F)F)c(NCC3CCCNC3)n2)cn1 (racemic) | 62.6 | – | – | –
CC(C)NCCCNc1nc(Nc2ccc(C#N)nc2)ncc1C(F)(F)F | 1980 | – | – | –
N#Cc1ccc(Nc2ncc(C(F)(F)F)c(NC[C@H]3CNCCO3)n2)cn1 | 37.3 | 1130 | 400 | inhibition at 10 µM (hERG (KCNH2)): 31.3%
CNc1nc(Nc2cnc(C#N)c(O[C@H]3CCCNC3)c2)ncc1C(F)(F)F | 355 | – | – | –
CNc1nc(Nc2cnc(C#N)c(NCCCN)c2)ncc1C(F)(F)F | 51.1 | – | – | –
CNCCNc1cc(Nc2ncc(C(F)(F)F)c(NC)n2)cnc1C#N | 27.9 | 270 | 180 | inhibition at 10 µM (hERG (KCNH2)): 46.4%
CNc1nc(Nc2cnc(C#N)c(N[C@H]3CC[C@@H](N)CC3)c2)ncc1C(F)(F)F | 8.5 | 50 | 10 | inhibition at 10 µM (hERG (KCNH2)): 84.2%
N#Cc1ccc(Nc2ncc(C(F)(F)F)c(N[C@@H]3CCCNC3)n2)cn1 | 831 | – | – | –
CNc1nc(Nc2cnc(C#N)c(N[C@H]3CCCNC3)c2)ncc1C(F)(F)F | 502 | – | – | –
N#Cc1ccc(Nc2ncc(C(F)(F)F)c(N[C@H]3CC[C@@H](N)CC3)n2)cn1 | 44.2 | – | – | inhibition at 10 µM (hERG (KCNH2)): 36.8%
N#Cc1ccc(Nc2ncc(C(F)(F)F)c(NC3CCCNC3)n2)cn1 (racemic) | 69.5 | – | – | –
CNc1nc(Nc2cnc(C#N)c(NC[C@@H]3CCCNC3)c2)ncc1C(F)(F)F | 110 | – | – | –
